Measurements as given in patent publication US10633358B2, “T-type calcium channel inhibitor” (KINKI UNIVERSITY, priority 2013, dated 2020).
Like-named read-outs stand apart in the source and are kept apart here.

What was measured:
[1] = biological target: human T-type calcium channel (Homo sapiens, UniProt O95180); test: cell-based
Method: A T-type calcium channel inhibitory action of sophoraflavanone G was measured by a whole-cell patch method using a human renal cell-derived cell line: […] cell forced to express a human T-type calcium channel.
In the whole-cell patch method, a barium current passing as an inward current was measured in a potential jump from −80 mV to −20 mV with the holding potential set to −80 mV using, as an external solution and an internal solution, ones having the compositions shown below. Here, for eliminating influences of a high-threshold-activated-type calcium channel, a value obtained by subtracting from a peak current a current 150 ms after the start of stimulation was used as a T-current for data analysis.
External Solution Composition
Aqueous solution containing the following: 97 mM N-methyl-D-glucamine (NMDG);
10 mM 4-(2-hydroxyethyl)-1-piperazine ethanesulfonic acid (HEPES);
40 mM tetraethylammonium chloride (TEA-Cl); and
Internal Solution Composition
Aqueous solution containing the following:
5 mM glycol ether diamine tetraacetic acid (EGTA)
In FIG. 1, the data are shown as a ratio (%) of a T-current at addition of a compound to a T-current at addition of a solvent (DMSO).
Except that sophoraflavanone G was replaced by 6-prenylnaringenin, the same procedure as in Example 1 was carried out to measure a T-type calcium channel inhibitory action of […].
Except that sophoraflavanone G was replaced by 8-prenylnaringenin, the same procedure as in Example 1 was carried out to measure a T-type calcium channel inhibitory action of […].
These […] values are values calculated by GraphPad Prism® (GraphPad Software, Inc.) using the results of Examples 1 to 3.

[2] = system: NaHS-induced hyperalgesia; test: Action on NaHS-induced hyperalgesia, up-and-down method using a von Frey filament; assay type: in vivo; details: male ddY mouse; for Action on NaHS-induced hyperalgesia (in words): paw sole administration
Method: Into the paw sole of a male ddY mouse, 0.1 nmol/paw (volume: 10 μL/paw) of NaHS (sodium hydrogen sulfide) was administered alone, […], and an action of sophoraflavanone G on NaHS-induced hyperalgesia was measured by an up-and-down method using a von Frey filament.
Here, NaHS (sodium hydrogen sulfide) is used as a H2S donor. H2S is a hyperalgesia-inducing substance which is involved in information transmission of pain through a Cav3.2 T-type calcium channel (see Kawabata A. et al. Hydrogen sulfide as a novel nociceptive messenger. Pain. 2007 November; 132(1-2): 74-81. Epub 2007 Mar. 7.).
Except that 6-prenylnaringenin was used in place of sophoraflavanone G, the same procedure as in Example 4 was carried out to measure an action of 6-prenylnaringenin on NaHS-induced hyperalgesia.
Except that 8-prenylnaringenin was used in place of sophoraflavanone G, the same procedure as in Example 4 was carried out to measure an action of 8-prenylnaringenin on NaHS-induced hyperalgesia.

L-type Ca2+ channel = biological target: T1, L-type Ca2+ channel (Rattus norvegicus, UniProt P22002); test: K50-induced contraction in a ring preparation of a rat aorta (endothelium removed); assay type: cell-based; details: for Selectivity T-type over L-type calcium channel (in words): conclusion from Examples 1-3 and 7-9; for inhibition at 0.001 µM / inhibition at 0.003 µM / inhibition at 0.01 µM / inhibition at 0.03 µM / inhibition at 0.1 µM / inhibition at 0.3 µM / inhibition at 1 µM / inhibition at 3 µM: read-out: Inhibitory rate (%) on contraction by K50; for Action on L-type calcium channel (in words): specimen pre-contracted by K50, up to 3 μM
T1 construct: A 1 mm-wide ring preparation was prepared from the thoracic aorta; from tissue; host or cells: thoracic aorta ring preparation (endothelium removed) of male Wistar rats
Method: For the experiment, 7 to 10 week-old male Wistar rats (Japan SLC, Inc., Shizuoka, Japan) were used. These experimental animals were bred in a chamber with a 12-hour light-dark cycle maintained at a temperature of about 24° C. while they were allowed to freely take tap water and a solid feed (Oriental Yeast Co., Ltd., Tokyo, Japan).
The rats were caused to hemorrhage to death by cutting the carotid artery under anesthesia, and the thoracic aorta was extracted. Connective tissues and fat were removed from the thoracic aorta in a cooled modified Kreb's liquid. A 1 mm-wide ring preparation was prepared from the thoracic aorta, and the lumen of the specimen was rubbed with rubber to remove the endothelium.
Two 100 μm tungsten wires were inserted into the lumen of the 1 mm-wide ring preparation, and the ring preparation was transferred to a liquid bath with a volume of 10 mL. […] The other ends of tungsten wires inserted into the lumen of the ring preparation were fixed to a tension transducer, and a change in tension of the specimen was isometrically measured. Signals from the tension transducer passed through a blood pressure amplifier to be recorded by a pen recorder. An initial stretching tension of 1 g was applied in a normal Kreb's liquid, and the specimen was equilibrated for 1 hour, and then caused to contract once by a 10^−6 M phenylephrine solution. This procedure was necessary for obtaining stable results. At the end of the experiment, verapamil (Vera) (10^−5 M) and papaverine (10^−4 M) were added to completely relax the specimen. The level at this time was set to 0 for all the measurements of a change in tension.
The reagents used were as follows. • Normal Kreb's liquid: NaCl (118 mM), KCl (4.7 mM), CaCl2 (2.5 mM), MgCl2 (1.2 mM), NaHCO3 (25 mM), KH2PO4 (1.2 mM) and glucose (10 mM) were diluted with H2O to 1 L, and ventilated for 10 minutes with a mixed gas of 95% of O2 and 5% of CO2, and 2.5 mL of a 1 M CaCl2 solution was then added. • Kreb's liquid (K50): NaCl (73.9 mM), KCl (48.8 mM), CaCl2 (2.5 mM), MgCl2 (1.2 mM), NaHCO3 (25 mM), KH2PO4 (1.2 mM) and glucose (10 mM) were diluted with H2O to 1 L, and ventilated for 10 minutes with a mixed gas of 95% of O2 and 5% of CO2, and 2.5 mL of a 1 M CaCl2 solution was then added. • Acetylcholine hydrochloride (Ach, manufactured by Sigma) • Verapamil hydrochloride (Vera, manufactured by Eisai Co., Ltd. (Tokyo)) • Papaverine hydrochloride (manufactured by Sigma) 5. Results
Thereafter, the specimen was washed three times with the Normal Kreb's liquid, and to the specimen caused to pre-contract by the Kreb's liquid (K50) containing 50 mM potassium ions, 1 μL of 1 μM of sophoraflavanone G (final concentration: 0.001 μM) dissolved in DMSO, 2 μL of 1 μM of the sophoraflavanone G (final concentration: 0.003 μM), 7 μL of 1 μM of the sophoraflavanone G (final concentration: 0.01 μM), 2 μL of 10 μM of the sophoraflavanone G (final concentration: 0.03 μM), 7 μL of 10 μM of the sophoraflavanone G (final concentration: 0.1 μM), 2 μL of 10 μM of the sophoraflavanone G (final concentration: 0.3 μM), 7 μL of 100 μM of the sophoraflavanone G (final concentration: 1 μM) and […] of the sophoraflavanone G (final concentration: 3 μM) were accumulatively added in a liquid bath containing 10 mL of the Kreb's liquid.
Except that 6-prenylnaringenin was used in place of sophoraflavanone G, the same procedure as in Example 7 was carried out to examine effects on an L-type Ca^2+ channel.
Except that 8-prenylnaringenin was used in place of sophoraflavanone G, the same procedure as in Example 7 was carried out to examine effects on an L-type Ca^2+ channel.

[3] = HEK293, read-out: Inhibition rate (%)
[4] = NaHS 0.1 nmol/paw sole + compound 0.1 nmol/paw sole
[5] = NaHS 0.1 nmol/paw sole + compound 1 nmol/paw sole
[6] = NaHS 0.1 nmol/paw sole + compound 10 nmol/paw sole
[7] = 0.001 μM final concentration, accumulatively added, rat aorta ring
[8] = 0.003 μM final concentration, accumulatively added, rat aorta ring
[9] = 0.01 μM final concentration, accumulatively added, rat aorta ring
[10] = 0.03 μM final concentration, accumulatively added, rat aorta ring
[11] = 0.1 μM final concentration, accumulatively added, rat aorta ring
[12] = 0.3 μM final concentration, accumulatively added, rat aorta ring
[13] = 1 μM final concentration, accumulatively added, rat aorta ring
[14] = 3 μM final concentration, accumulatively added, rat aorta ring

Chain of human T-type calcium channel (O95180 whole entry): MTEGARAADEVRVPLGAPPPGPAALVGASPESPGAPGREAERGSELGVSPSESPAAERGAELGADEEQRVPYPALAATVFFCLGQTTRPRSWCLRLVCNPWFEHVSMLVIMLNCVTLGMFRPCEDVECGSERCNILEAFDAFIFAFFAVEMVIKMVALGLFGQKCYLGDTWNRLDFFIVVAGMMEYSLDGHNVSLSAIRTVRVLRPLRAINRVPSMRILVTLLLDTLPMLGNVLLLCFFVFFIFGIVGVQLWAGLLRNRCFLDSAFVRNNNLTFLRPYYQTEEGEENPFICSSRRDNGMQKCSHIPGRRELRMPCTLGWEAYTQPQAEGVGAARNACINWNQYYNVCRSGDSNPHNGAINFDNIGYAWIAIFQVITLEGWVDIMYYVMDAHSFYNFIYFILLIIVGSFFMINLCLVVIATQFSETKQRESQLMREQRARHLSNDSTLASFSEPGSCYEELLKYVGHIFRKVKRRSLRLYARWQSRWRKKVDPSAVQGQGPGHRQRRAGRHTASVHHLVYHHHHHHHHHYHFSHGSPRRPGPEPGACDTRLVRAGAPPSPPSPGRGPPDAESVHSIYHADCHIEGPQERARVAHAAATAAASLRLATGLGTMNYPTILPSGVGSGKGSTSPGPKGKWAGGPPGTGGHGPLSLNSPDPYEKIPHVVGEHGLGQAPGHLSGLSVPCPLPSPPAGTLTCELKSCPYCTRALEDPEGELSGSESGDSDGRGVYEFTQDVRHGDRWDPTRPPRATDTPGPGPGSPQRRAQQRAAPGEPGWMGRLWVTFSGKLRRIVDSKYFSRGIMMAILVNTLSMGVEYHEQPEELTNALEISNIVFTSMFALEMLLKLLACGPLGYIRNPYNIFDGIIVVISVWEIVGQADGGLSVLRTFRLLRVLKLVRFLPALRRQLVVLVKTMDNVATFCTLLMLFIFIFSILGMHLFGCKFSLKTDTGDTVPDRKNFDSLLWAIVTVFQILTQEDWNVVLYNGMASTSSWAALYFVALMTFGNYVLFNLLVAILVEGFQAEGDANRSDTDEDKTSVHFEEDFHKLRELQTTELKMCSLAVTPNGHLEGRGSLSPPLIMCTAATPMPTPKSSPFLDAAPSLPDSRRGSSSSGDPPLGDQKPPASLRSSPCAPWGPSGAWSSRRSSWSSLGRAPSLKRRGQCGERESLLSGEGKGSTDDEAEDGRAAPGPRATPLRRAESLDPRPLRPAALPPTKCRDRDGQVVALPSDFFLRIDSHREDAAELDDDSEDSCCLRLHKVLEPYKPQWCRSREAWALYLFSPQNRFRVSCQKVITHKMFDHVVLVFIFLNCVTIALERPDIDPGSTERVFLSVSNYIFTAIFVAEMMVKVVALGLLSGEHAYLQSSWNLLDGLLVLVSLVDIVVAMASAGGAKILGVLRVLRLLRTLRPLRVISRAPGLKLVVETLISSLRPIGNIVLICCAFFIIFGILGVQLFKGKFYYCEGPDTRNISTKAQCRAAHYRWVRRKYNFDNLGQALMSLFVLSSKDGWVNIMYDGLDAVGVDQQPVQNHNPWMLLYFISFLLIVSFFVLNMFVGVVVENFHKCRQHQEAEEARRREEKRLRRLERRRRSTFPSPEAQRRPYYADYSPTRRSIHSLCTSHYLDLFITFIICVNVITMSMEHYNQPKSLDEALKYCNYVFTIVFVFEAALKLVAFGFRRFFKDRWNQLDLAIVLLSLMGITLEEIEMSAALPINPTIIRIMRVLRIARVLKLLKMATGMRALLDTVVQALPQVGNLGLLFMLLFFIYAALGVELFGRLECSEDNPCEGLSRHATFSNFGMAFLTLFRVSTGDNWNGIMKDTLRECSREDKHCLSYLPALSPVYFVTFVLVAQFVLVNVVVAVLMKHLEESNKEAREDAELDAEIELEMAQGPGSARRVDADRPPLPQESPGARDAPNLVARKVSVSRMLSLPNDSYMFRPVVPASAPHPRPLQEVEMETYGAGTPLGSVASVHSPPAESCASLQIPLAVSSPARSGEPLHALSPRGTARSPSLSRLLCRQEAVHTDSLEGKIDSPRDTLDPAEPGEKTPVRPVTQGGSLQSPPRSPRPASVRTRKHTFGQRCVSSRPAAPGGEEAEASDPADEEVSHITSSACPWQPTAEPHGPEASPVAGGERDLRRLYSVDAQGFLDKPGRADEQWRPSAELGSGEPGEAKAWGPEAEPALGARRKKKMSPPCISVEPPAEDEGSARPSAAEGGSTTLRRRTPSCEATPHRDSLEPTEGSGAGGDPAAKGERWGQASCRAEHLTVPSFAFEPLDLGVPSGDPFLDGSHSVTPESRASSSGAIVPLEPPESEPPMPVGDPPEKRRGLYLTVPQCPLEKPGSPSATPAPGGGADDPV

Row | Compound | inhibition at 1 µM [1, 3] [%] | inhibition at 3 µM [1, 3] [%] | Hyperalgesia threshold (g) Average value ± standard error [2, 4] [g] | Hyperalgesia threshold (g) Average value ± standard error [2, 5] [g] | Hyperalgesia threshold (g) Average value ± standard error [2, 6] [g] | Action on NaHS-induced hyperalgesia (in words) [2] | Selectivity T-type over L-type calcium channel (in words) (L-type Ca2+ channel) | Action on L-type calcium channel (in words) (L-type Ca2+ channel) | inhibition at 0.001 µM (L-type Ca2+ channel; [7]) [%] | inhibition at 0.003 µM (L-type Ca2+ channel; [8]) [%] | inhibition at 0.01 µM (L-type Ca2+ channel; [9]) [%] | inhibition at 0.03 µM (L-type Ca2+ channel; [10]) [%] | inhibition at 0.1 µM (L-type Ca2+ channel; [11]) [%] | inhibition at 0.3 µM (L-type Ca2+ channel; [12]) [%] | inhibition at 1 µM (L-type Ca2+ channel; [13]) [%] | inhibition at 3 µM (L-type Ca2+ channel; [14]) [%] | further results
1 | CC(C)=CCc1c(O)cc2c(c1O)C(=O)C[C@@H](c1ccc(O)cc1)O2 [6-Prenylnaringenin, (2S)-5,7-dihydroxy-2,3-dihydro-2-(4-hydroxyphenyl)-6-(3-methyl-2-butenyl)-4H-1-benzopyran-4-one] | 82.7 | 99 | 0.28 ± 0.07 | 0.31 ± 0.06 | 0.52 ± 0.09 | inhibits NaHS-induced hyperalgesia | T-type calcium channel-specific inhibitor | does not act on an L-type calcium channel | – | – | – | – | – | – | – | – | inhibition at 0.3 µM [1, 3]: 0%; inhibition at 0.001 µM (L-type Ca2+ channel): 0%; inhibition at 0.003 µM (L-type Ca2+ channel): 0%; inhibition at 0.01 µM (L-type Ca2+ channel): 4.1%; inhibition at 0.03 µM (L-type Ca2+ channel): 6.1%; inhibition at 0.1 µM (L-type Ca2+ channel): 4.1%; inhibition at 0.3 µM (L-type Ca2+ channel): 4.1%; inhibition at 1 µM (L-type Ca2+ channel): 4.1%; inhibition at 3 µM (L-type Ca2+ channel): 4.1%
2 | CC(C)=CCc1c(O)cc(O)c2c1O[C@H](c1ccc(O)cc1)CC2=O [8-Prenylnaringenin, (2S)-5,7-dihydroxy-2,3-dihydro-2-(4-hydroxyphenyl)-8-(3-methyl-2-butenyl)-4H-1-benzopyran-4-one] | – | – | 0.23 ± 0.04 | 0.41 ± 0.04 | 0.55 ± 0.05 | inhibits NaHS-induced hyperalgesia | T-type calcium channel-specific inhibitor | does not act on an L-type calcium channel | 0 | 0 | 7.4 | 0 | 11.1 | 14.8 | 22.2 | 25.9 | inhibition at 0.3 µM ([1]; HEK293, compound concentration 300 nM, T-current, HEK 293 cell expressing human T-type calcium channel, read-out: Inhibition rate (%)): 16.4%; inhibition at 1 µM ([1]; HEK293, compound concentration 1000 nM, T-current, HEK 293 cell expressing human T-type calcium channel, read-out: Inhibition rate (%)): 64.9%; inhibition at 3 µM ([1]; HEK293, compound concentration 3000 nM, T-current, HEK 293 cell expressing human T-type calcium channel, read-out: Inhibition rate (%)): 91%; inhibition at 10 µM ([1]; HEK293, compound concentration 10000 nM, T-current, HEK 293 cell expressing human T-type calcium channel, read-out: Inhibition rate (%)): 99.9%
3 | C=C(C)[C@H](CC=C(C)C)Cc1c(O)cc(O)c2c1O[C@H](c1ccc(O)cc1O)CC2=O [Sophoraflavanone G, (2S)-5,7-dihydroxy-2,3-dihydro-2-(2,4-dihydroxyphenyl)-8-[(R)-5-methyl-2-(1-methylethenyl)-4-hexenyl]-4H-1-benzopyran-4-one] | 61.1 | 97.7 | – | – | – | inhibits NaHS-induced hyperalgesia | T-type calcium channel-specific inhibitor | does not act on an L-type calcium channel | 0 | 0 | 5.6 | 5.6 | 5.6 | 5.6 | 11.1 | 8.3 | inhibition at 0.5 µM [1, 3]: 25.9%; Hyperalgesia threshold (g) Average value ± standard error ([2]; NaHS 0.1 nmol/paw sole + compound 1 pmol/paw sole): 0.11 ± 0.04 g; Hyperalgesia threshold (g) Average value ± standard error ([2]; NaHS 0.1 nmol/paw sole + compound 10 pmol/paw sole): 0.35 ± 0.07 g; Hyperalgesia threshold (g) Average value ± standard error ([2]; NaHS 0.1 nmol/paw sole + compound 30 pmol/paw sole): 0.34 ± 0.10 g
